This is an account of results in patent publication US10610520B2, “Heterocyclic compound” (Takeda Pharmaceutical Company Limited, priority 2016, dated 2020).

This assay addresses T1, His-hMAGL (recombinant polyhistidine tagged human MAGL protein) (Homo sapiens, UniProt Q99685).
T1 construct: made in house; host or cells: E. coli BL21(DE3)
T1 sequence (Q99685 1-303): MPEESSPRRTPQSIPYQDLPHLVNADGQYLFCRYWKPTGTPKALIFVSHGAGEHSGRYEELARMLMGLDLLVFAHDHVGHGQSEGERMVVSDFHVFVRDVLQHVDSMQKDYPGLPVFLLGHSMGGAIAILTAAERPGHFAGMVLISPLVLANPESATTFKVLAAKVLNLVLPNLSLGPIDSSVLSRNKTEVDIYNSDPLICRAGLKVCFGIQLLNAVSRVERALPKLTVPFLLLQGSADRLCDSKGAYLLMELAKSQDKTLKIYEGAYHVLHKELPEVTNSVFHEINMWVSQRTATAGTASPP
Kind of assay: Measurement of MAGL inhibitory activity (arachidonic acid production from 2-arachidonylglycerol, RapidFire-mass spectrometry). In kind it is biochemical. The following applies: MAGL inhibitory rate, test compound 10 μM, 60 min preincubation, 2-arachidonylglycerol substrate. Summed up: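 Arachidonic acid formed was quantified by online solid-phase extraction and triple-quadrupole MS in negative SRM mode against a d8 internal standard. Reaction: recombinant His-hMAGL (7.5 ng/mL, pH 7.5 Tris buffer with Triton X-100 and BSA) plus 2-AG (5 μL of 150 μM stock) for 10 min at room temperature, quenched with 2% formic acid. Percent inhibition corrected for enzyme-free background.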
In general, inhibition refers to the relative decrease from the control value, in per cent. Consider `O=C1COCC2(CCN(C(=O)c3sc4cc(OC(F)(F)F)ccc4c3Cl)C2)N1` (stereo not drawn) [Example 273, 2-((3-chloro-6-(trifluoromethoxy)-1-benzothiophen-2-yl)carbonyl)-9-oxa-2,6-diazaspiro[4.5]decan-7-one], for which the inhibition at 10 µM stood at 100%.

Take `O=C1CCC2(CN(C(=O)c3sc4cc(Br)ccc4c3C3CC3)C2)N1` [Example 245, 2-((6-bromo-3-cyclopropyl-1-benzothiophen-2-yl)carbonyl)-2,5-diazaspiro[3.4]octan-6-one]: the inhibition at 10 µM was 98%.

With `O=C1CCC2(CN(C(=O)c3ccc(-c4ccc(Cl)cc4)cc3)C2)N1` [Example 87, 2-((4′-chlorobiphenyl-4-yl)carbonyl)-2,5-diazaspiro[3.4]octan-6-one], the inhibition at 10 µM is 98%.

In the case of `O=C1CCC2(CN(C(=O)c3cc4ccc(-c5ccc(Cl)cc5)cc4o3)C2)N1` [Example 169, 2-((6-(4-chlorophenyl)-1-benzofuran-2-yl)carbonyl)-2,5-diazaspiro[3.4]octan-6-one], the inhibition at 10 µM came to 80%.

As for `O=C1NC2(CO1)CN(C(=O)[C@H]1C[C@@H](OCc3ccc(C(F)(F)F)cc3Cl)C1)C2` [Example 352, 2-((cis-3-((2-chloro-4-(trifluoromethyl)benzyl)oxy)cyclobutyl)carbonyl)-7-oxa-2,5-diazaspiro[3.4]octan-6-one], the inhibition at 10 µM was 100%.

As to `O=C1CCC2(CN(C(=O)c3sc4cc(-c5ccc(OC(F)(F)F)cc5)ccc4c3Cl)C2)N1` [Example 200, 2-((3-chloro-6-(4-(trifluoromethoxy)phenyl)-1-benzothiophen-2-yl)carbonyl)-2,5-diazaspiro[3.4]octan-6-one], the inhibition at 10 µM was 94%.

As for `O=C1NC2(CO1)CN(C(=O)c1sc3cc(OC(F)(F)F)c(C(F)F)cc3c1Cl)C2` [Example 306, 2-((3-chloro-5-(difluoromethyl)-6-(trifluoromethoxy)-1-benzothiophen-2-yl)carbonyl)-7-oxa-2,5-diazaspiro[3.4]octan-6-one], the inhibition at 10 µM is 100%.

On to `O=C1CCC2(CN(C(=O)c3sc(-c4ccc(C5(C(F)(F)F)CC5)cc4)cc3Cl)C2)N1` [Example 247, 2-((3-chloro-5-(4-(1-(trifluoromethyl)cyclopropyl)phenyl)-2-thienyl)carbonyl)-2,5-diazaspiro[3.4]octan-6-one], for which the inhibition at 10 µM turned out to be 100%.

For the compound `O=C1CCC2(CN(C(=O)c3ccc(-c4ccccc4)s3)C2)N1` [Example 126, 2-((5-phenyl-2-thienyl)carbonyl)-2,5-diazaspiro[3.4]octan-6-one], the inhibition at 10 µM stood at 85%.

`O=C1CCC2(CN(C(=O)c3ccc(-c4ccc(C(F)(F)F)cc4F)cc3)C2)N1` [Example 46, 2-((2′-fluoro-4′-(trifluoromethyl)biphenyl-4-yl)carbonyl)-2,5-diazaspiro[3.4]octan-6-one]: the inhibition at 10 µM is 96%.

Regarding `O=C1CCC2(CN(C(=O)N3CCC(Cc4ccc(Cl)cc4)CC3)C2)N1` [Example 99, 2-((4-(4-chlorobenzyl)piperidin-1-yl)carbonyl)-2,5-diazaspiro[3.4]octan-6-one], the inhibition at 10 µM is 100%.

Consider `O=C1CCC2(CN(C(=O)c3ccc(-c4cc(C(F)(F)F)cc(C(F)(F)F)c4)cc3)C2)N1` [Example 48, 2-((3′,5′-bis(trifluoromethyl)biphenyl-4-yl)carbonyl)-2,5-diazaspiro[3.4]octan-6-one], for which the inhibition at 10 µM turned out to be 98%.

For `O=C1NC2(CO1)CN(C(=O)c1sc3cc(OC(F)(F)F)c(F)cc3c1Cl)C2` [Example 280, 2-((3-chloro-5-fluoro-6-(trifluoromethoxy)-1-benzothiophen-2-yl)carbonyl)-7-oxa-2,5-diazaspiro[3.4]octan-6-one], the inhibition at 10 µM is 101%.

`CC(C)(C)c1cccc(-c2ccc(C(=O)N3CC4(CCC(=O)N4)C3)cc2)c1` [Example 55, 2-((3′-tert-butylbiphenyl-4-yl)carbonyl)-2,5-diazaspiro[3.4]octan-6-one]: the inhibition at 10 µM is 101%.

`O=C1CCC2(CN(C(=O)c3ccc(-c4cc(F)c(F)c(F)c4)cc3)C2)N1` [Example 68, 2-((3′,4′,5′-trifluorobiphenyl-4-yl)carbonyl)-2,5-diazaspiro[3.4]octan-6-one]: the inhibition at 10 µM came out at 93%.

Consider `CC(C)c1ccccc1-c1ccc2c(Cl)c(C(=O)N3CC4(CCC(=O)N4)C3)sc2c1` [Example 189, 2-((3-chloro-6-(2-isopropylphenyl)-1-benzothiophen-2-yl)carbonyl)-2,5-diazaspiro[3.4]octan-6-one], for which the inhibition at 10 µM came out at 100%.

Consider `Cc1cc2c(Cl)c(C(=O)N3CC4(COC(=O)N4)C3)sc2cc1OC(F)(F)F` [Example 295, 2-((3-chloro-5-methyl-6-(trifluoromethoxy)-1-benzothiophen-2-yl)carbonyl)-7-oxa-2,5-diazaspiro[3.4]octan-6-one], for which the inhibition at 10 µM amounted to 101%.

In the case of `O=C1CCC2(CN(C(=O)c3ccc(-c4ccccc4)cc3OC(F)(F)F)C2)N1` [Example 172, 2-((3-(trifluoromethoxy)biphenyl-4-yl)carbonyl)-2,5-diazaspiro[3.4]octan-6-one], the inhibition at 10 µM was found to be 88%.

For the compound `O=C1CCC2(CN(C(=O)c3sc4cc(C(F)(F)F)ccc4c3F)C2)N1` [Example 238, 2-((3-fluoro-6-(trifluoromethyl)-1-benzothiophen-2-yl)carbonyl)-2,5-diazaspiro[3.4]octan-6-one], the inhibition at 10 µM is 97%.

Consider `O=C1NC2(CO1)CN(C(=O)c1sc3c(F)c(OC(F)(F)F)ccc3c1Cl)C2` [Example 279, 2-((3-chloro-7-fluoro-6-(trifluoromethoxy)-1-benzothiophen-2-yl)carbonyl)-7-oxa-2,5-diazaspiro[3.4]octan-6-one], for which the inhibition at 10 µM came to 100%.

`O=C1CCC2(CN(C(=O)N3CCC(COc4ccc5c(c4)CCCC5)CC3)C2)N1` [Example 239, 2-((4-((5,6,7,8-tetrahydronaphthalen-2-yloxy)methyl)piperidin-1-yl)carbonyl)-2,5-diazaspiro[3.4]octan-6-one]: the inhibition at 10 µM worked out at 101%.

Regarding `O=C1NC2(CO1)CN(C(=O)N1CCC(COc3ccc(F)cc3Cl)CC1)C2` [Example 240, 2-((4-((2-chloro-4-fluorophenoxy)methyl)piperidin-1-yl)carbonyl)-7-oxa-2,5-diazaspiro[3.4]octan-6-one], the inhibition at 10 µM was found to be 100%.

For the compound `O=C1CCC2(CN(C(=O)c3sc(-c4cccc(C5(C(F)(F)F)CC5)c4)cc3Cl)C2)N1` [Example 246, 2-((3-chloro-5-(3-(1-(trifluoromethyl)cyclopropyl)phenyl)-2-thienyl)carbonyl)-2,5-diazaspiro[3.4]octan-6-one], the inhibition at 10 µM stood at 100%.

In the case of `O=C1NC2(CO1)CN(C(=O)c1sc3cc(Cl)cc(Cl)c3c1Cl)C2` [Example 308, 2-((3,4,6-trichloro-1-benzothiophen-2-yl)carbonyl)-7-oxa-2,5-diazaspiro[3.4]octan-6-one], the inhibition at 10 µM was 101%.

For the compound `O=C1CCC2(CN(C(=O)N3CCC(Cc4ccc(Cl)c(Cl)c4)CC3)C2)N1` [Example 103, 2-((4-(3,4-dichlorobenzyl)piperidin-1-yl)carbonyl)-2,5-diazaspiro[3.4]octan-6-one], the inhibition at 10 µM was 103%.

Turning to `O=C1CCC2(CN(C(=O)c3ccc(-c4cccc(Cl)c4)cc3)C2)N1` [Example 86, 2-((3′-chlorobiphenyl-4-yl)carbonyl)-2,5-diazaspiro[3.4]octan-6-one], the inhibition at 10 µM was 97%.

In the case of `O=C1CCC2(CN(C(=O)c3ccc(-c4ccc(F)c(F)c4F)cc3)C2)N1` [Example 69, 2-((2′,3′,4′-trifluorobiphenyl-4-yl)carbonyl)-2,5-diazaspiro[3.4]octan-6-one], the inhibition at 10 µM came out at 97%.

Turning to `O=C1CCC2(CN(C(=O)c3sc4cc(-c5ccc(C(F)(F)F)nc5)ccc4c3Cl)C2)N1` [Example 228, 2-((3-chloro-6-(6-(trifluoromethyl)pyridin-3-yl)-1-benzothiophen-2-yl)carbonyl)-2,5-diazaspiro[3.4]octan-6-one], the inhibition at 10 µM amounted to 87%.

For the compound `O=C1NC2(CO1)CN(C(=O)[C@H]1C[C@@H](OCc3ccc(Cl)c(Cl)c3)C1)C2` [Example 353, 2-((cis-3-((3,4-dichlorobenzyl)oxy)cyclobutyl)carbonyl)-7-oxa-2,5-diazaspiro[3.4]octan-6-one], the inhibition at 10 µM is 100%.

With `O=C1CCC2(CN(C(=O)c3sc4c(C(F)(F)F)cccc4c3Cl)C2)N1` [Example 255, 2-((3-chloro-7-(trifluoromethyl)-1-benzothiophen-2-yl)carbonyl)-2,5-diazaspiro[3.4]octan-6-one], the inhibition at 10 µM is 99%.

As for `CC(C)(C)c1ccc(-c2ccc(C(=O)N3CC4(CCC(=O)N4)C3)cc2)cc1` [Example 54, 2-((4′-tert-butylbiphenyl-4-yl)carbonyl)-2,5-diazaspiro[3.4]octan-6-one], the inhibition at 10 µM was 99%.

Consider `O=C1CCC2(CN(C(=O)N3CCC(Cc4ccccc4F)CC3)C2)N1` [Example 96, 2-((4-(2-fluorobenzyl)piperidin-1-yl)carbonyl)-2,5-diazaspiro[3.4]octan-6-one], for which the inhibition at 10 µM was 101%.

As to `O=C1CCC2(CN(C(=O)c3cc4cccc(Br)c4s3)C2)N1` [Example 146, 2-((7-bromo-1-benzothiophen-2-yl)carbonyl)-2,5-diazaspiro[3.4]octan-6-one], the inhibition at 10 µM worked out at 90%.
